# Data taken from PubChem BioAssay AID330 (DTP/NCI, 2004).
# Several values for one entry are separate records, joined by “and”; a condition that tells them apart may be missing. Equal values may be shown once. Toxic doses and inconclusive results are not listed.
# System: P388 leukemia ip, CD2F1 mice, survival T/C
# Test: NCI In Vivo Anticancer Drug Screen. Data for tumor model P388 Leukemia (intraperitoneal) in CD2F1 (CDF1) mice
# Details: endpoint: median survival time, higher = longer survival
# Outline: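 Mice carrying the transplanted tumor received test compound or vehicle. Survival was recorded in each group, and the value is the treated-group measurement divided by that of the vehicle-treated control group.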
# [1] = dose: 100.0 mg/kg/injection, schedule: Q01DX009 (ip), vehicle: saline
# [2] = dose: 200.0 mg/kg/injection, schedule: Q01DX009 (ip), vehicle: saline
structure (smiles),measurement,setting,value
COc1cccc2c1C(=O)c1c(O)c3c(c(O)c1C2=O)C[C@@](O)(/C(C)=N/NC(=O)c1cccc([N+](=O)[O-])c1)C[C@@H]3OC1CC(N)C(O)C(C)O1 (some centres not stated),T/C,"dose: 0.5 mg/kg/injection, schedule: Q01DX009 (ip), vehicle: water",152 % of control
same,T/C,"dose: 1.0 mg/kg/injection, schedule: Q01DX009 (ip), vehicle: water",155 % of control
same,T/C,"dose: 1.0 mg/kg/injection, schedule: Q04DX003 (ip), vehicle: saline",100 % of control and 112 % of control
same,T/C,"dose: 1.56 mg/kg/injection, schedule: Q04DX003 (ip), vehicle: water",106 % of control
same,T/C,"dose: 2.0 mg/kg/injection, schedule: Q01DX009 (ip), vehicle: water",172 % of control and 179 % of control
same,T/C,"dose: 2.0 mg/kg/injection, schedule: Q04DX003 (ip), vehicle: saline",100 % of control and 115 % of control
same,T/C,"dose: 3.13 mg/kg/injection, schedule: Q04DX003 (ip), vehicle: water",112 % of control and 117 % of control
same,T/C,"dose: 4.0 mg/kg/injection, schedule: Q01DX009 (ip), vehicle: water",190 % of control and 200 % of control
same,T/C,"dose: 4.0 mg/kg/injection, schedule: Q04DX003 (ip), vehicle: saline",113 % of control and 122 % of control
same,T/C,"dose: 5.0 mg/kg/injection, schedule: Q01DX001 (ip), vehicle: water",167 % of control
same,T/C,"dose: 6.25 mg/kg/injection, schedule: Q04DX003 (ip), vehicle: water",114 % of control and 122 % of control
same,T/C,"dose: 8.0 mg/kg/injection, schedule: Q01DX009 (ip), vehicle: water",123 % of control and 202 % of control
same,T/C,"dose: 8.0 mg/kg/injection, schedule: Q04DX003 (ip), vehicle: saline",112 % of control and 115 % of control and 95 % of control
same,T/C,"dose: 10.0 mg/kg/injection, schedule: Q01DX001 (ip), vehicle: water",186 % of control
same,T/C,"dose: 16.0 mg/kg/injection, schedule: Q04DX003 (ip), vehicle: saline",110 % of control and 115 % of control and 123 % of control
same,T/C,"dose: 25.0 mg/kg/injection, schedule: Q04DX003 (ip), vehicle: water",168 % of control
same,T/C,"dose: 32.0 mg/kg/injection, schedule: Q04DX003 (ip), vehicle: saline",118 % of control
same,T/C,"dose: 64.0 mg/kg/injection, schedule: Q04DX003 (ip), vehicle: saline",174 % of control
same,T/C,"dose: 100.0 mg/kg/injection, schedule: Q04DX003 (ip), vehicle: water",114 % of control
same,T/C,"dose: 512.0 mg/kg/injection, schedule: Q04DX003 (ip), vehicle: saline",92 % of control
same,T/C,"dose: 1024.0 mg/kg/injection, schedule: Q04DX003 (ip), vehicle: saline",93 % of control
same,T/C,"dose: 2048.0 mg/kg/injection, schedule: Q04DX003 (ip), vehicle: saline",90 % of control
c1ccc(C(Sc2c[nH]c3ccccc23)(c2ccccc2)c2ccccc2)cc1 (tested in a mixture with another compound),T/C,"dose: 100.0 mg/kg/injection, schedule: Q01DX001 (ip), vehicle: saline with Tween-80",100 % of control
same,T/C,"dose: 200.0 mg/kg/injection, schedule: Q01DX001 (ip), vehicle: saline with Tween-80",90 % of control
same,T/C,"dose: 400.0 mg/kg/injection, schedule: Q01DX001 (ip), vehicle: saline with Tween-80",92 % of control
CN(C)Cc1c(N=Nc2ccc3ccc4cccc5ccc2c3c45)[nH]c2ccccc12,T/C,"dose: 50.0 mg/kg/injection, schedule: Q01DX009 (ip), vehicle: saline with Tween-80",103 % of control
same,T/C,"dose: 100.0 mg/kg/injection, schedule: Q01DX009 (ip), vehicle: saline with Tween-80",115 % of control
same,T/C,"dose: 200.0 mg/kg/injection, schedule: Q01DX009 (ip), vehicle: saline with Tween-80",115 % of control
O=C(O)CSCC(=O)Nc1cc(C(F)(F)F)cc(C(F)(F)F)c1,T/C,"dose: 60.0 mg/kg/injection, schedule: Q01DX005 (ip), vehicle: Klucel (hydroxypropylcellulose) (HPC)",95 % of control
same,T/C,"dose: 120.0 mg/kg/injection, schedule: Q01DX005 (ip), vehicle: Klucel (hydroxypropylcellulose) (HPC)",98 % of control
same,T/C,"dose: 240.0 mg/kg/injection, schedule: Q01DX005 (ip), vehicle: Klucel (hydroxypropylcellulose) (HPC)",113 % of control
COc1cc2cc[n+](C)c(C)c2cc1OC,T/C,"dose: 12.5 mg/kg/injection, schedule: Q01DX009 (ip), vehicle: distilled water + Tween-80",111 % of control
same,T/C,"dose: 25.0 mg/kg/injection, schedule: Q01DX009 (ip), vehicle: distilled water + Tween-80",111 % of control and 120 % of control
same,T/C,"dose: 50.0 mg/kg/injection, schedule: Q01DX009 (ip), vehicle: distilled water + Tween-80",121 % of control and 124 % of control
same,T/C,"dose: 100.0 mg/kg/injection, schedule: Q01DX009 (ip), vehicle: distilled water + Tween-80",100 % of control and 118 % of control
COc1ccc(CO)cc1O,T/C,[1],105 % of control and 97 % of control
same,T/C,[2],104 % of control and 107 % of control
same,T/C,"dose: 400.0 mg/kg/injection, schedule: Q01DX009 (ip), vehicle: saline",104 % of control
same,T/C,"dose: 600.0 mg/kg/injection, schedule: Q01DX009 (ip), vehicle: saline",95 % of control and 96 % of control
O=C1C2=C(SCCS2)C(=O)N1c1cccc2ccccc12,T/C,"dose: 50.0 mg/kg/injection, schedule: Q01DX009 (ip), vehicle: saline",97 % of control
same,T/C,[1],97 % of control
same,T/C,[2],100 % of control
